In the experiment the test system is umbilical cord tissue. Put plainly: Isolation of cells from umbilical cord tissue using varying enzyme combinations. In kind it is cell-based, human. Also noted: key: + = good; ++ = very good; +++ = excellent; X = no success. Conditions: enzyme digest of umbilical cord tissue. The procedure:
Umbilical cords were obtained from National Disease Research Interchange (NDRI, Philadelphia, Pa.). The tissues were obtained following normal deliveries. The cell isolation protocols were performed aseptically in a laminar flow hood. To remove blood and debris, the cord was washed in phosphate buffered saline (PBS; Invitrogen, Carlsbad, Calif.) in the presence of penicillin at 100 U/ml, streptomycin at […] and amphotericin B at 0.25 μg/ml (Invitrogen Carlsbad, Calif.). The tissues were then mechanically dissociated in 150 cm^2 tissue culture plates in the presence of 50 ml of medium (DMEM-low glucose or DMEM-high glucose; Invitrogen) until the tissue was minced into a fine pulp. The chopped tissues were transferred to 50 ml conical tubes (approximately 5 g of tissue per tube).
The tissue was then digested in either DMEM-low glucose medium or DMEM-high glucose medium, each containing penicillin at 100 U/ml, streptomycin at […], amphotericin B at 0.25 μg/ml and the digestion enzymes. In some experiments an enzyme mixture of collagenase and dispase was used (“C:D”) (collagenase (Sigma, St Louis, Mo.), 500 U/ml; and dispase (Invitrogen), 50 U/ml, in DMEM-Low glucose medium). In other experiments a mixture of collagenase, dispase and hyaluronidase (“C:D:H”) was used (C:D:H=collagenase, 500 U/ml; dispase, 50 U/ml; and hyaluronidase (Sigma), 5 U/ml, in DMEM-Low glucose). The conical tubes containing the tissue, medium and digestion enzymes were incubated at 37° C. in an orbital shaker (Environ, Brooklyn, N.Y.) at 225 rpm for 2 hours.
After digestion, the tissues were centrifuged at 150×g for 5 minutes, the supernatant was aspirated. The pellet was resuspended in 20 ml of growth medium (DMEM:Low glucose (Invitrogen), 15% (v/v) fetal bovine serum (FBS; defined fetal bovine serum; Lot #AND18475; Hyclone, Logan, Utah), 0.001% (v/v) 2-mercaptoethanol (Sigma), penicillin at 100 U/ml, streptomycin at 100 μg/ml, and amphotericin B at 0.25 μg/ml (each from Invitrogen, Carlsbad, Calif.)). The cell suspension was filtered through a 70 μm nylon BD FALCON Cell Strainer (BD Biosciences, San Jose, Calif.). An additional 5 ml rinse comprising growth medium was passed through the strainer. The cell suspension was then passed through a 40-μm nylon cell strainer (BD Biosciences, San Jose, Calif.) and chased with a rinse of an additional 5 ml of growth medium.
The filtrate was resuspended in growth medium (total volume 50 ml) and centrifuged at 150×g for 5 minutes. The supernatant was aspirated and the cells were resuspended in 50 ml of fresh growth medium. […]
After the final centrifugation, supernatant was aspirated and the cell pellet was resuspended in 5 ml of fresh growth medium. The number of viable cells was determined using trypan blue staining. […]

Turning to Collagenase, the “Cell Expansion” value was “X” and the “Cells Isolated” value was “X”.

Turning to Hyaluronidase, the “Cell Expansion” value was “X” and the “Cells Isolated” value was “X”.

The values above are taken from patent US10791730B2, “Composition and methods for cryopreservation of hUTC” (DePuy Synthes Products, Inc., priority 2016, dated 2020).
